Assay results published in US20260217767A1, “NOVEL A4B7 THIOETHER PEPTIDE DIMER ANTAGONISTS” (Protagonist Therapeutics, Inc., priority 2014, published 2026).
Where two headings read alike, the source gives them in different places. *1 amine or outer side, *2 acyl side, *3 side chain or, on linkers, in order; H or OH if unused. Where a SMILES comes first, the peptide text is derived from it. Bridges are numbered along the chain shown (N, C = ends). Roman numbers before positions name the chains, in order. [ ]: non-standard residue; d: D form. Phe(4-tBu) = CC(C)(C)c1ccc(C[C@H](N)C(=O)O)cc1; Diglycolyl = O=C(COCC(=O)[*:2])[*:1]; NMeR = CN[C@@H](CCCNC(=N)N)C(=O)O; β3hE = N[C@@H](CCC(=O)O)CC(=O)O; X1 = O=C(c1ccccc1C[*:2])[*:1]; Pen = CC(C)(S)[C@H](N)C(=O)O; hCys = N[C@@H](CCS)C(=O)O

Target: T1, RPMI 8866 cells (Homo sapiens, UniProt P13612+P26010)
T1 sequence (P13612 34-1032): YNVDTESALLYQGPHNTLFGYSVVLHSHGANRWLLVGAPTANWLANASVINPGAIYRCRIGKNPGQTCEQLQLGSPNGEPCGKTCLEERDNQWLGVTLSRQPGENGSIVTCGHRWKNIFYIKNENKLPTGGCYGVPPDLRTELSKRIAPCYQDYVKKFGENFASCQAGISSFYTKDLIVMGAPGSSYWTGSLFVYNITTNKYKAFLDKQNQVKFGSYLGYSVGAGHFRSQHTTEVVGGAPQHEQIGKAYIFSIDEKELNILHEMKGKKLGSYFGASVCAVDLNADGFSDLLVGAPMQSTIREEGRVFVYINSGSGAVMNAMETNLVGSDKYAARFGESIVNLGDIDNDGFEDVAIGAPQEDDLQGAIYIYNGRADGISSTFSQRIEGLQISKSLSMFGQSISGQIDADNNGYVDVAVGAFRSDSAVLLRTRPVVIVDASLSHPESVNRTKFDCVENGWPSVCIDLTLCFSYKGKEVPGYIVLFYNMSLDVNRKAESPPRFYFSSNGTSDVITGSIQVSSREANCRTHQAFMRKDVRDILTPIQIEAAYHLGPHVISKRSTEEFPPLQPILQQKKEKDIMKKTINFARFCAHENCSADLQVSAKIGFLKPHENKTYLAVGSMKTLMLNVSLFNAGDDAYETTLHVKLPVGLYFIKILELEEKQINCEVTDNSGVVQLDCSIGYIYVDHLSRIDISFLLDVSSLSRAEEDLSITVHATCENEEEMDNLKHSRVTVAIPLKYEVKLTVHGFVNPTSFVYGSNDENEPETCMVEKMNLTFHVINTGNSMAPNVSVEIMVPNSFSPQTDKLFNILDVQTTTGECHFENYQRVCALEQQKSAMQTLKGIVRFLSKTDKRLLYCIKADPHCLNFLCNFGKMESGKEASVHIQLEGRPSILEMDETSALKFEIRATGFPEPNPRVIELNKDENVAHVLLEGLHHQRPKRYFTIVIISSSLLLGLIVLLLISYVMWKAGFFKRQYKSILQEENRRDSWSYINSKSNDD
T1 sequence (P26010 20-798): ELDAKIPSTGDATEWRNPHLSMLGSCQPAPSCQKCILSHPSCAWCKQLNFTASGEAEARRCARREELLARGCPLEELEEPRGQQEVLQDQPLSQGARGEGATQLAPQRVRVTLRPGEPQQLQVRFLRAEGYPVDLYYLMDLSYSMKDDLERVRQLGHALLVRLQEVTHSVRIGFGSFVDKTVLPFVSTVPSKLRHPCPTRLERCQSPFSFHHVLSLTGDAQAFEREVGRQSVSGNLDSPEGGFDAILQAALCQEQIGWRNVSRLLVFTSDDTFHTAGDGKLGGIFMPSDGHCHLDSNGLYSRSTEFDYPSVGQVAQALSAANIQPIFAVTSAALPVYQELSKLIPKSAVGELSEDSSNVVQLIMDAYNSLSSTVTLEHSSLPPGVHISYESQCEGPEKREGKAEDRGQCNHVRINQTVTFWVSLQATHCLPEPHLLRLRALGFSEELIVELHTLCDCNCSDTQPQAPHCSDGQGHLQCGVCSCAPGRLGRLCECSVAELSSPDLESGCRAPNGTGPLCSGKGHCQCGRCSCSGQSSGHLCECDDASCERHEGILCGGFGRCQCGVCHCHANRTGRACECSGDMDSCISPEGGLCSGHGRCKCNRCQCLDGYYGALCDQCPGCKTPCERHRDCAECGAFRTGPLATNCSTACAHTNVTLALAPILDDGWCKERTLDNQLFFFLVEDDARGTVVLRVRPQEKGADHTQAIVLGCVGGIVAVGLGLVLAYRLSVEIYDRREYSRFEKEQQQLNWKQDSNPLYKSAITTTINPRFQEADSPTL
Assay: α4β7-MAdCAM Cell Adhesion Assay
Type: cell-based
Settings: read-out: Cell-Adhesion A4B7
How it was run: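 Peptide inhibition of adhesion measured with MAdCAM-1/Fc chimera immobilised at 200 ng/well and MnCl2-activated (1 mM) RPMI 8866 cells, 30-45 min at 37° C. Adherent cells remaining after three washes detected by MTT reduction at 570 nm, corrected for no-cell wells, giving dose response.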

[1] = thioether monomer peptides, Table 6
[2] = thioether peptide dimers, Table 7

CC(C)C[C@@H]1NC(=O)[C@H]([C@@H](C)O)NC(=O)[C@H](CC(=O)O)NC(=O)[C@H](CO)NC(=O)[C@H](CCCNC(=N)N)N(C)C(=O)c2ccccc2CSC(C)(C)[C@@H](C(=O)N[C@@H](Cc2ccc(C(C)(C)C)cc2)C(=O)N[C@@H](CCC(=O)O)CC(N)=O)NC1=O [compound 134] ([NMeR]SDTL[Pen][Phe(4-tBu)][β3hE]-NH2; linker N-6 via X1)
IC50 [1]: < 0.025 µM

CC(C)C[C@@H]1NC(=O)[C@H]([C@@H](C)O)NC(=O)[C@H](CC(=O)O)NC(=O)[C@H](CO)NC(=O)[C@H](CCCNC(=N)N)N(C)C(=O)CSC[C@@H](C(=O)N[C@@H](Cc2c[nH]c3ccccc23)C(=O)N[C@H](CCCCNC(=O)COCC(=O)NCCCC[C@@H](NC(=O)[C@H](Cc2c[nH]c3ccccc23)NC(=O)[C@@H]2CSCC(=O)N(C)[C@@H](CCCNC(=N)N)C(=O)N[C@@H](CO)C(=O)N[C@@H](CC(=O)O)C(=O)N[C@@H]([C@@H](C)O)C(=O)N[C@@H](CC(C)C)C(=O)N2)C(N)=O)C(N)=O)NC1=O [compound 143]
IC50 [2]: 0.1 to 1 µM

CC(C)C[C@@H]1NC(=O)[C@H]([C@@H](C)O)NC(=O)[C@H](CC(=O)O)NC(=O)[C@H](CO)NC(=O)[C@H](CCCNC(=N)N)N(C)C(=O)c2ccccc2CSC(C)(C)[C@@H](C(=O)N[C@@H](Cc2c[nH]c3ccccc23)C(=O)N[C@H](CCC(=O)O)C(=O)N[C@H](Cc2ccccc2)C(N)=O)NC1=O [compound 107] (HELM PEPTIDE1{[meR].S.D.T.L.[Pen].W.[dE].[dF].[am]}|CHEM1{[O=C(c1ccccc1C[*:2])[*:1]]}$PEPTIDE1,CHEM1,1:R1-1:R1|PEPTIDE1,CHEM1,6:R3-1:R2$$$V2.0)
IC50 [1]: 0.025 to 0.1 µM

CC(C)C[C@@H]1NC(=O)[C@H]([C@@H](C)O)NC(=O)[C@H](CC(=O)O)NC(=O)[C@H](CO)NC(=O)[C@H](CCCNC(=N)N)N(C)C(=O)c2ccccc2CSC(C)(C)[C@@H](C(=O)N[C@@H](Cc2c[nH]c3ccccc23)C(=O)N[C@H](CCC(=O)O)C(=O)N[C@@H](CCC(=O)O)C(N)=O)NC1=O [compound 113] (HELM PEPTIDE1{[meR].S.D.T.L.[Pen].W.[dE].E.[am]}|CHEM1{[O=C(c1ccccc1C[*:2])[*:1]]}$PEPTIDE1,CHEM1,1:R1-1:R1|PEPTIDE1,CHEM1,6:R3-1:R2$$$V2.0)
IC50 [1]: 0.025 to 0.1 µM

CC(C)C[C@@H]1NC(=O)[C@H]([C@@H](C)O)NC(=O)[C@H](CC(=O)O)NC(=O)[C@H](CO)NC(=O)[C@H](CCCNC(=N)N)N(C)C(=O)c2ccccc2CSC(C)(C)[C@@H](C(=O)N[C@@H](Cc2ccc3ccccc3c2)C(N)=O)NC1=O [compound 116] (HELM PEPTIDE1{[meR].S.D.T.L.[Pen].[O=C([C@H](Cc1ccc2ccccc2c1)N[*:1])[*:2]].[am]}|CHEM1{[O=C(c1ccccc1C[*:2])[*:1]]}$PEPTIDE1,CHEM1,1:R1-1:R1|PEPTIDE1,CHEM1,6:R3-1:R2$$$V2.0)
IC50 [1]: 0.025 to 0.1 µM

CC(C)C[C@@H]1NC(=O)[C@H]([C@@H](C)O)NC(=O)[C@H](CC(=O)O)NC(=O)[C@H](CO)NC(=O)[C@H](CCCNC(=N)N)N(C)C(=O)c2ccccc2CSC(C)(C)[C@@H](C(=O)N[C@@H](Cc2c[nH]c3ccccc23)C(=O)N[C@H](CCC(=O)O)C(=O)N[C@@H](CCN)C(N)=O)NC1=O [compound 95] (HELM PEPTIDE1{[meR].S.D.T.L.[Pen].W.[dE].[Dab].[am]}|CHEM1{[O=C(c1ccccc1C[*:2])[*:1]]}$PEPTIDE1,CHEM1,1:R1-1:R1|PEPTIDE1,CHEM1,6:R3-1:R2$$$V2.0)
IC50 [1]: 0.1 to 1 µM

CC(C)C[C@@H]1NC(=O)[C@H]([C@@H](C)O)NC(=O)[C@H](CC(=O)O)NC(=O)[C@H](CO)NC(=O)[C@H](CCCNC(=N)N)N(C)C(=O)c2ccccc2CSC[C@@H](C(=O)N[C@@H](Cc2c[nH]c3ccccc23)C(=O)N[C@@H](CCC(=O)O)C(=O)N[C@H](CCCCN)C(N)=O)NC1=O [compound 55] (HELM PEPTIDE1{[meR].S.D.T.L.C.W.E.[dK].[am]}|CHEM1{[O=C(c1ccccc1C[*:2])[*:1]]}$PEPTIDE1,CHEM1,1:R1-1:R1|PEPTIDE1,CHEM1,6:R3-1:R2$$$V2.0)
IC50 [1]: 0.1 to 1 µM

CC(C)C[C@@H]1NC(=O)[C@H]([C@@H](C)O)NC(=O)[C@H](CC(=O)O)NC(=O)[C@H](CO)NC(=O)[C@H](CCCNC(=N)N)N(C)C(=O)c2ccccc2CSC(C)(C)[C@@H](C(=O)N[C@@H](Cc2ccc(-c3ccccc3)cc2)C(=O)N[C@H](CCC(=O)O)C(=O)N[C@H](CCCCN)C(N)=O)NC1=O [compound 178] (HELM PEPTIDE1{[meR].S.D.T.L.[Pen].[O=C([C@H](Cc1ccc(-c2ccccc2)cc1)N[*:1])[*:2]].[dE].[dK].[am]}|CHEM1{[O=C(c1ccccc1C[*:2])[*:1]]}$PEPTIDE1,CHEM1,1:R1-1:R1|PEPTIDE1,CHEM1,6:R3-1:R2$$$V2.0)
IC50 [2]: < 0.025 µM

CC(C)C[C@@H]1NC(=O)[C@H]([C@@H](C)O)NC(=O)[C@H](CC(=O)O)NC(=O)[C@H](CO)NC(=O)[C@H](CCCNC(=N)N)N(C)C(=O)c2ccccc2CSC(C)(C)[C@@H](C(=O)N[C@@H](Cc2c[nH]c3ccccc23)C(=O)N[C@H](CCC(=O)O)C(=O)N[C@H](CO)C(N)=O)NC1=O [compound 106] (HELM PEPTIDE1{[meR].S.D.T.L.[Pen].W.[dE].[dS].[am]}|CHEM1{[O=C(c1ccccc1C[*:2])[*:1]]}$PEPTIDE1,CHEM1,1:R1-1:R1|PEPTIDE1,CHEM1,6:R3-1:R2$$$V2.0)
IC50 [1]: 0.025 to 0.1 µM

CC(C)C[C@@H]1NC(=O)[C@H]([C@@H](C)O)NC(=O)[C@H](CC(=O)O)NC(=O)[C@H](CO)NC(=O)[C@H](CCCNC(=N)N)N(C)C(=O)C(C)SC[C@@H](C(=O)N[C@@H](Cc2c[nH]c3ccccc23)C(=O)N[C@H](CCCCN)C(N)=O)NC1=O (single isomer, unassigned) [compound 144]
IC50 [2]: > 1 µM

CC(C)C[C@@H]1NC(=O)[C@H]([C@@H](C)O)NC(=O)[C@H](CC(=O)O)NC(=O)[C@H](CO)NC(=O)[C@H](CCCNC(=N)N)N(C)C(=O)c2ccccc2CSCC[C@@H](C(=O)N[C@@H](Cc2c[nH]c3ccccc23)C(=O)N[C@@H](CCC(=O)O)C(=O)N[C@H](CCCCNC(=O)COCC(=O)NCCCC[C@@H](NC(=O)[C@H](CCC(=O)O)NC(=O)[C@H](Cc2c[nH]c3ccccc23)NC(=O)[C@@H]2CCSCc3ccccc3C(=O)N(C)[C@@H](CCCNC(=N)N)C(=O)N[C@@H](CO)C(=O)N[C@@H](CC(=O)O)C(=O)N[C@@H]([C@@H](C)O)C(=O)N[C@@H](CC(C)C)C(=O)N2)C(N)=O)C(N)=O)NC1=O [compound 157] (I: [NMeR]SDTL[hCys]WE[dK]-NH2 / II: [NMeR]SDTL[hCys]WE[dK]-NH2; linker I:9-II:9 via Diglycolyl; linker I:N-I:6, II:N-II:6 via X1)
IC50 [2]: 0.025 to 0.1 µM

CC(C)C[C@@H]1NC(=O)[C@H]([C@@H](C)O)NC(=O)[C@H](CC(=O)O)NC(=O)[C@H](CO)NC(=O)[C@H](CCCNC(=N)N)N(C)C(=O)c2ccccc2CSC(C)(C)[C@@H](C(=O)N[C@@H](Cc2c[nH]c3ccccc23)C(=O)N[C@H](CCC(=O)O)C(=O)N[C@@H](Cc2ccc(O)cc2)C(N)=O)NC1=O [compound 104] (HELM PEPTIDE1{[meR].S.D.T.L.[Pen].W.[dE].Y.[am]}|CHEM1{[O=C(c1ccccc1C[*:2])[*:1]]}$PEPTIDE1,CHEM1,1:R1-1:R1|PEPTIDE1,CHEM1,6:R3-1:R2$$$V2.0)
IC50 [1]: 0.025 to 0.1 µM
